# US12377094B2, “Therapeutic compositions and methods for treating checkpoint inhibitor-resistant tumors using plinabulin-based combination therapies” (BeyondSpring Pharmaceuticals, Inc., priority 2021, dated 2025)
# Assay: Dose-escalation Phase I study of nivolumab, ipilimumab and plinabulin: safety (DLT, RP2D, treatment-related AEs, irAEs)
# Format: in vivo, human
# Settings: with nivolumab 1 mg/kg and ipilimumab 3 mg/kg, IV day 1 of 21 day cycle; dose-level 2
# Description: In a dose-escalation Phase I study, patients with recurrent extensive-stage small cell lung cancer (SCLC) who had progressed on prior platinum-based chemotherapy were enrolled using a 3+3 design. The primary objective was to determine dose-limiting toxicities (DLT's) and recommended Phase 2 dose (RP2D). Patients were evaluable for DLT if they received at least two cycles of therapy; DLT period was defined as the first six weeks. Secondary endpoints were ORR, PFS and frequency of irAEs. Correlative analysis included inflammatory biomarkers: hsCRP, ESR, SAA and haptoglobin.
# Patients received nivolumab (1 mg/kg), ipilimumab (3 mg/kg) and plinabulin (as per dose escalation schema) IV on day 1 of each 21 day cycle. After completion of 4 cycles, patients continued therapy with nivolumab (240 mg) and plinabulin every 2 weeks till progression or intolerable toxicity. Patients were evaluable for DLT if they received at least 2 cycles of therapy; DLT period was defined as the first 6 weeks from C1D1.
structure (smiles),measurement,value
"CC(C)(C)c1[nH]cnc1/C=c1\[nH]c(=O)/c(=C/c2ccccc2)[nH]c1=O [plinabulin, (3Z,6Z)-3-Benzylidene-6-{[5-(2-methyl-2-propanyl)-1H-imidazol-4-yl]methylene}-2,5-piperazinedione]",recommended Phase 2 dose (RP2D) of plinabulin,30 mg/m2
